# Source: publication PMC9238271, “The quorum sensing peptide EntF* promotes colorectal cancer metastasis in mice: a new factor in the host-microbiome interaction” (BMC Biology, 2022)
# Entries after “also recorded” stand apart in the source; their conditions may differ.
# Assays:
# [1] = test system: E-cadherin expression in HCT-8 cells; test: Western blot of E-cadherin expression, HCT-8 cells (EntF*, alanine and D-amino acid analogs); assay type: cell-based
# Procedure: HCT-8, HT-29, and HT-116 cells were grown in DMEM medium supplied with 10% fetal bovine serum (FBS) and 1% penicillin-streptomycin. Caco-2 cells were grown in DMEM medium supplied with 10% FBS, 1% non-essential amino acid NEAA), and 1% penicillin-streptomycin. Cells were cultured at 37 °C and 5% CO2. As cells reached confluency, they were detached using 0.25% Trypsin-EDTA.
# For Western blot analyses, HCT-8 (n = 15), HCT-116 (n = 12), Caco-2 (n = 6), and HT-29 (n = 12) cells were seeded in 6-well plates at a density of 1 × 10^6 cells/well. Twenty-four hours after seeding, all cell lines were treated with 1 μM EntF* or a placebo solution. HCT-8 cells were also tested for responsiveness to 1 μM EntF* synthetic alanine-derived analogs. For antagonist activity analysis, HCT-8 cells were treated with 1 μM Nef-M1 or 1 μM EntF*A1 alone or in combination with 500 nM EntF*. After 24 h, cells were detached from the surface and lysed in RIPA buffer (Thermo Scientific). Protein concentration was determined using the modified Lowry protein assay kit (Thermo Scientific), according to the manufacturer’s instructions. Protein samples were diluted to the same concentration (4 μg/μL) with water and diluted again 1:1 using 2x Laemmli buffer. After that, samples were boiled for 5 min at 95 °C to denature proteins and centrifuged for 5 min at 16,000g; supernatants were used for Western blot analyses. Equal amounts of total protein (20 μg/lane) were separated by SDS-PAGE on an Any kD^TM gel (Bio-Rad ) and then transferred to a PVDF membrane. Before incubation with antibodies, non-specific binding sites on the membranes were blocked using 5% skimmed milk solution (1 h). TBS buffer with 0.05% Tween 20 was used for all washing steps. Membranes were incubated overnight at 4 °C with an anti-E-cadherin primary antibody (1/1000 dilution). An HRP-conjugated anti-rabbit antibody (1/2000 dilution, 1 h incubation) was used for chemiluminescent detection. Membranes were incubated with the detection substrate for 5 min and signal detection was performed using the ChemiDoc EZ imager and Image Lab software (Bio-Rad). Signal intensity was normalized against the total protein content in each lanes.
# A quantitative approach was used to evaluate the importance of each amino acid, where the Fisher’s LSD p-values of (1) multiple comparisons between EntF* and the alanine (ALA) scan and (2) multiple comparisons between different peptides of the ALA scan are combined. Subsequently, based on the combined P-score, the amino acids were classified in 5 classes using a hierarchical cluster analysis and confirmed using the Jenks natural breaks algorithm with K = 5. CombinedPscore=1-PPBSvsALAscan*PEntF*vsALAscan
# [2] = test system: luciferase-transfected HCT-8/E11 cells injected into the cecal wall; test: Orthotopic mouse model of colorectal cancer: weekly bioluminescent imaging; assay type: in vivo, female athymic nude mice (Swiss nu/nu)
# Procedure: All in vivo experiments were performed according to the Ethical Committee principles of laboratory animal welfare, approved by our institute (Ghent University, Faculty of Medicine and Health Sciences, approval number ECD 17-90). Mice were maintained in a sterile environment under controlled conditions (light–dark cycle with light from 7:00 h to 17:00 h, temperature 21–25 °C and humidity 45–65%). Before the experiment, mice were allowed to acclimate to the abovementioned conditions for a minimum of 7 days.
# Six-week-old female athymic nude mice (Swiss nu/nu) were anesthetized, and a minimally invasive midline laparotomy was performed to localize the cecum. The cecum was then gently pulled out, and luciferase-transfected HCT-8/E11 cells (1 × 10^6 cells) in 20 μL serum-free DMEM medium with Matrigel (1:1) were injected into the cecal wall. Before implantation, cells were treated with EntF* (10^2 nM), Phr0662 (10^2 nM), vehicle (PBS), or TGFα positive control (0.1 μg mL^−1) solutions for 5 days. The cecum was then carefully placed back into the abdominal cavity and the surgical incision was closed with two layers of sutures with PDS 6-0. […] Once a week, mice were examined for tumor growth and metastases using bioluminescent imaging with the IVIS Lumina II (Perkin Elmer, Belgium) after i.p. injection with 200 μL luciferin (150 mg kg^−1). After 6 weeks, mice were euthanized using cervical dislocation, and the liver, diaphragm, lungs, cecum, duodenum, and peritoneum were macroscopically examined for the presence of tumor nodules. Liver and lung tissues were then fixed in formalin for 24 h and stored in 70% ethanol for maximum 3 days before embedding in paraffin. Next, a hematoxylin and eosin (H&E) staining was performed on 8 μm sections, and 3 sections per mouse were visualized using microscopy. Slides from tumor-bearing mice were analyzed by two blinded, independent investigators using the scoring system described in Additional file 5: Table S3. In case of differences, slides were scored by a third blinded, independent investigator for consensus.
# The Kolmogorov-Smirnov test was used to assess if data obtained were normally distributed. For sample size n < 10, non-parametric tests (Mann-Whitney U test) were performed directly. Slope comparison was based on linear regression analysis. Bootstrapped medians and Hedges G-values were used to calculate the effect size when sample sizes were different between the groups.
structure (smiles),measurement,setting,value
"CC(C)C[C@@H]1NC(=O)[C@H](CO)NC(=O)[C@H](Cc2ccccc2)NC(=O)[C@H](C(C)C)NC(=O)[C@@H](NC(=O)[C@H](CCC(=O)O)NC(=O)[C@@H](NC(=O)[C@H](CC(C)C)NC(=O)[C@H](CC(N)=O)NC(=O)[C@@H](N)CO)C(C)C)CSSC[C@@H](C(=O)N[C@@H](CC(N)=O)C(=O)O)NC(=O)[C@H](CCCCN)NC(=O)[C@H](CCCCN)NC(=O)[C@H](Cc2ccccc2)NC1=O (single isomer, unassigned) [EntF*]",effect on E-cadherin levels in HCT-8 cells,"[1]; 24 h, n = 15",significant decrease
same,Relative E-cadherin decrease,"[1]; Ala-scan sheet, Blot 19 (single blot), chemiluminescence band, placebo lane = 100",54.8007
same,E-cadherin expression relative to H2O control (= 100),"[1]; Ala-scan sheet, Blot 20 (single blot), chemiluminescence band, placebo lane = 100",67.4208
same,Relative E-cadherin decrease,"[1]; Ala-scan sheet, Blot 21 (single blot), chemiluminescence band, placebo lane = 100",65.0177
same,E-cadherin expression relative to H2O control (= 100),"[1]; Ala-scan sheet, Blot 24 (single blot), chemiluminescence band, Norm. Vol. relative to placebo lane = 100",28.5
same,E-cadherin expression relative to H2O control (= 100),"[1]; Ala-scan sheet, Blot 25 (single blot), chemiluminescence band, Norm. Vol. relative to placebo lane = 100",21.0
same,E-cadherin expression relative to H2O control (= 100),"[1]; Ala-scan sheet, Blot 26 (single blot), chemiluminescence band, Norm. Vol. relative to placebo lane = 100",35.9
same,E-cadherin expression relative to H2O control (= 100),"[1]; Ala-scan sheet, Blot 27 (single blot), chemiluminescence band, Norm. Vol. relative to placebo lane = 100",217.9
same,E-cadherin expression relative to H2O control (= 100),"[1]; Ala-scan, Blot 11 (single blot replicate), normalized band volume relative to Placebo = 100.0",93.8
same,E-cadherin expression relative to H2O control (= 100),"[1]; Ala-scan, Blot 12 (single blot replicate), normalized band volume relative to Placebo = 100.0",85.9
same,E-cadherin expression relative to H2O control (= 100),"[1]; Ala-scan, Blot 13 (single blot replicate), normalized band volume relative to Placebo = 100.0",94.6
same,E-cadherin expression relative to H2O control (= 100),"[1]; Ala-scan, Blot 14 (single blot replicate), normalized band volume relative to Placebo = 100.0",84.9
same,E-cadherin expression relative to H2O control (= 100),"[1]; Ala-scan, Blot 18 (single blot replicate), normalized band volume relative to Placebo = 100.0",74.8
same,E-cadherin expression relative to H2O control (= 100),"[1]; D-scan, Blot 1 (replicate), Norm. Vol. relative to H2O lane = 100.0, chemiluminescence",92.9
same,E-cadherin expression relative to H2O control (= 100),"[1]; D-scan, Blot 2 (replicate), Norm. Vol. relative to H2O lane = 100.0, chemiluminescence",90.1
same,E-cadherin expression relative to H2O control (= 100),"[1]; D-scan, Blot 3 (replicate), Norm. Vol. relative to H2O lane = 100.0, chemiluminescence",85.4
same,E-cadherin expression relative to H2O control (= 100),"[1]; D-scan, Blot 4 (replicate), Norm. Vol. relative to H2O lane = 100.0, chemiluminescence",88.3
same,E-cadherin expression relative to H2O control (= 100),"[1]; D-scan, Blot 6 (replicate), Norm. Vol. relative to H2O lane = 100.0, chemiluminescence",95.4
same,E-cadherin expression relative to H2O control (= 100),"[1]; D-scan, Blot 7 (replicate), Norm. Vol. relative to H2O lane = 100.0, chemiluminescence",92.1
same,E-cadherin expression relative to H2O control (= 100),"[1]; D-scan, Blot 8 (replicate), Norm. Vol. relative to H2O lane = 100.0, chemiluminescence",99.2
same,E-cadherin expression relative to H2O control (= 100),"[1]; D-scan, Blot 9 (replicate), Norm. Vol. relative to H2O lane = 100.0, chemiluminescence",67.6
same,E-cadherin expression relative to H2O control (= 100),"[1]; D-scan, Blot 10 (replicate), Norm. Vol. relative to H2O lane = 100.0, chemiluminescence",83.3
same,E-cadherin expression relative to H2O control (= 100),"[1]; D-scan, Blot 11 (replicate), Norm. Vol. relative to H2O lane = 100.0, chemiluminescence",74.5
same,E-cadherin expression relative to H2O control (= 100),"[1]; D-scan, Blot 12 (replicate), Norm. Vol. relative to H2O lane = 100.0, chemiluminescence",74.5
same,E-cadherin expression relative to H2O control (= 100),"[1]; H2O = 100.0, CXCL12 at 10µg/ml, mean of the replicates (row r47, unlabelled; SEM in row below)",85.8
same,E-cadherin expression relative to H2O control (= 100),"[1]; H2O = 100.0, CXCL12 at 10µg/ml, replicate 1 (row r35)",92.9
same,E-cadherin expression relative to H2O control (= 100),"[1]; H2O = 100.0, CXCL12 at 10µg/ml, replicate 2 (row r36)",90.1
same,E-cadherin expression relative to H2O control (= 100),"[1]; H2O = 100.0, CXCL12 at 10µg/ml, replicate 3 (row r37)",85.4
same,E-cadherin expression relative to H2O control (= 100),"[1]; H2O = 100.0, CXCL12 at 10µg/ml, replicate 4 (row r38)",88.3
same,Ala scan: Relative E-cadherin decrease,"[1]; H2O = 100.0, mean of the replicates (row r29, unlabelled; SEM in row below)",62.0
same,E-cadherin expression relative to H2O control (= 100),"[1]; H2O = 100.0, replicate 5 (row r39)",95.4
same,E-cadherin expression relative to H2O control (= 100),"[1]; H2O = 100.0, replicate 6 (row r40)",92.1
same,E-cadherin expression relative to H2O control (= 100),"[1]; H2O = 100.0, replicate 7 (row r41)",99.2
same,E-cadherin expression relative to H2O control (= 100),"[1]; H2O = 100.0, replicate 8 (row r42)",67.6
same,E-cadherin expression relative to H2O control (= 100),"[1]; H2O = 100.0, replicate 9 (row r43)",83.3
same,E-cadherin expression relative to H2O control (= 100),"[1]; H2O = 100.0, replicate 10 (row r44)",74.5
same,E-cadherin expression relative to H2O control (= 100),"[1]; H2O = 100.0, replicate 11 (row r45)",74.5
same,"Relative E-cadherin decrease in different cell lines, Average","[1]; HCT-8 cells, average (EntF* n = 15, CXCL12 n = 4)",62.0
same,"effect size class by Hedges' G, bioluminescence","[2]; after a 6-week treatment, compared to the placebo group",medium to large effect
same,effect size: increase in bioluminescence compared to the placebo,"[2]; after a 6-week treatment, bootstrapped median",79%
same,luciferase activity / tumor growth compared to the vehicle,"[2]; daily i.p. over 6 weeks, linear regression slope comparison",statistically significant increase; also recorded: significant increase in tumor growth
